Results from US20210238192A1, “VASCULAR ADHESION PROTEIN-1 (VAP-1) MODULATORS AND THERAPEUTIC USES THEREOF” (Blade Therapeutics, Inc., priority 2018, published 2021).
Counter-ions that a name gives are not always drawn.

Columns and labels:
Assay type in all cases: biochemical
[1] = target: T1, Human DAO (Homo sapiens, UniProt P19801); assay: DAO inhibition (Amplex Red continuous fluorescence assay); conditions: 30 min pre-incubation at room temp; substrate histamine; read-out: Human DAO IC50
T1 sequence (P19801 20-751): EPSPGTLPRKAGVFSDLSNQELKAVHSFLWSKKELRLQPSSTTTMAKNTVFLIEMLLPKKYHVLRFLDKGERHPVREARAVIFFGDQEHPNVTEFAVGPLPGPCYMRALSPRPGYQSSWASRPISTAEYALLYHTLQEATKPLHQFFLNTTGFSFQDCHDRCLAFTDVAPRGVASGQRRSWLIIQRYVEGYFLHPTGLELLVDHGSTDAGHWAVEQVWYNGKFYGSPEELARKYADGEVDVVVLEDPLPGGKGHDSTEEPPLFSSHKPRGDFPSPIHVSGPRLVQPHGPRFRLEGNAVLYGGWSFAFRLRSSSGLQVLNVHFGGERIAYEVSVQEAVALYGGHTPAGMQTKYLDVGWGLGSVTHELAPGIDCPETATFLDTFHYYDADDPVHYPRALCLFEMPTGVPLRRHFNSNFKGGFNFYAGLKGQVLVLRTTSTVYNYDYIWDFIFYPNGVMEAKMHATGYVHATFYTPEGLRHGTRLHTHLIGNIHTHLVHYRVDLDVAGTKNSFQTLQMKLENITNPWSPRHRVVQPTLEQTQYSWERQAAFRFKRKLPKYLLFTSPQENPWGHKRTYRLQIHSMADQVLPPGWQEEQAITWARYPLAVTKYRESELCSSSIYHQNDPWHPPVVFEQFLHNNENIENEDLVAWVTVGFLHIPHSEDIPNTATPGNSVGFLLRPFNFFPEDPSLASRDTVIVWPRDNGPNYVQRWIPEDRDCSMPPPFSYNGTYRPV
Procedure: (§1) VAP-1, DAO, MAO-A, MAO-B, and HRP activity and inhibition thereof was assessed by means of a continuous fluorescence assay. The Amplex Red Hydrogen Peroxide/Peroxidase Assay (ThermoFisher) was optimized for detecting amine oxidase (AO) activity. In an enzyme-coupled reaction, the H2O2 generated by AO reacts 1:1 with Amplex Red reagent to produce fluorescent product resorufin.
(§2) Assays were typically setup in black 384-well plates using automated liquid handling as follows. VAP-1/MAO assay buffer contains […] sodium phosphate, pH 7.4; DAO assay buffer contains 50 mM HEPES, pH 7.5; HRP assay buffer contains 100 mM CHES, 1 mM MgCl2, 50 mM NaCl, 0.05% BSA, pH 9.0. Inhibitors were serially diluted in DMSO and used to setup 2× mixtures with AO in the aforementioned buffer. After 30 min pre-incubation at 37° C. (VAP-1, HRP) or room temp (DAO, MAO), the reaction was initiated by adding a 2× mix of Amplex Red, HRP (coupling enzyme), and substrate (benzylamine, histamine, tyramine, benzylamine, H2O2, for VAP-1, DAO, MAO-A, MAO-B, and HR, respectively) in the same buffer. Reaction progress curve data were typically collected for 5 min using excitation/emission wavelengths of 510 nm/565 nm on FLIPR-Tetra plate readers (Molecular Devices Inc). Reaction rates were calculated from progress curve slopes typically over 60-150 sec. Dose response curves (rate vs. log inhibitor concentration) were typically fit to a 4-parameter logistic function to extract IC50 values.

[2] = target: T2, Human MAO-B (Homo sapiens, UniProt P27338); assay: MAO-B inhibition (Amplex Red continuous fluorescence assay); conditions: 30 min pre-incubation at room temp; substrate benzylamine; read-out: Human MAO-B IC50
T2 sequence (P27338 1-520): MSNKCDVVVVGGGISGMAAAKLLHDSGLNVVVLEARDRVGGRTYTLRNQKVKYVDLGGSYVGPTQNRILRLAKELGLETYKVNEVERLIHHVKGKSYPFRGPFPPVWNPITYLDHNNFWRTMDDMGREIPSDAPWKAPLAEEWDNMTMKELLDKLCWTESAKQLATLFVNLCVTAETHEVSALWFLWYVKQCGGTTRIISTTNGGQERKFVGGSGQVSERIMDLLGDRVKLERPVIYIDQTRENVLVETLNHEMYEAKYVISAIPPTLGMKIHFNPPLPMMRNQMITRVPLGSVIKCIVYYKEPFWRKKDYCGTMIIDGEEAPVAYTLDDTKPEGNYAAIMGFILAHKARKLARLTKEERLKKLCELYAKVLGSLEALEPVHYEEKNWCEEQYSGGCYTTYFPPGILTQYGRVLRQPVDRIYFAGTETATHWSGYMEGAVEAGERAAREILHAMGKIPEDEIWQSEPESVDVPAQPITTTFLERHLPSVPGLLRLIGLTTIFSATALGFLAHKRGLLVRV
Procedure: as §1, §2

[3] = target: T3, Human MAO-A (Homo sapiens, UniProt P21397); assay: MAO-A inhibition (Amplex Red continuous fluorescence assay); conditions: 30 min pre-incubation at room temp; substrate tyramine; read-out: Human MAO-A IC50
T3 sequence (P21397 1-527): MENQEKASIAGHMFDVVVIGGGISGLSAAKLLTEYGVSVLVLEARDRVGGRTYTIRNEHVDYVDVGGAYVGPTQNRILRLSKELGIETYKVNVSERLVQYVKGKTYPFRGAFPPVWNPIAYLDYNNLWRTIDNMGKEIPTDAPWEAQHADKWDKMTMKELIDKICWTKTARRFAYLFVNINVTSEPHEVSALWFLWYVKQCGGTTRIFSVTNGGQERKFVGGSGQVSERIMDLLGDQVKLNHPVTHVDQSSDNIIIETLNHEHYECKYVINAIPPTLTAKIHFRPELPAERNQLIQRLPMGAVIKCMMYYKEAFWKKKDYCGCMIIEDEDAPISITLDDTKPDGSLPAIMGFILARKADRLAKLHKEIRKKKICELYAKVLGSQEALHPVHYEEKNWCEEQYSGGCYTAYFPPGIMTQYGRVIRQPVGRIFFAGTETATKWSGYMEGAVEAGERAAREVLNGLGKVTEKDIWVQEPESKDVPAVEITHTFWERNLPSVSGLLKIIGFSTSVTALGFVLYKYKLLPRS
Procedure: as §1, §2

[4] = target: T4, Human VAP-1 (Homo sapiens, UniProt Q16853); assay: VAP-1 inhibition assay (Amplex Red continuous fluorescence assay); conditions: 30 min pre-incubation at 37° C.; substrate benzylamine; read-out: Human VAP-1 IC50
T4 sequence (Q16853 1-763): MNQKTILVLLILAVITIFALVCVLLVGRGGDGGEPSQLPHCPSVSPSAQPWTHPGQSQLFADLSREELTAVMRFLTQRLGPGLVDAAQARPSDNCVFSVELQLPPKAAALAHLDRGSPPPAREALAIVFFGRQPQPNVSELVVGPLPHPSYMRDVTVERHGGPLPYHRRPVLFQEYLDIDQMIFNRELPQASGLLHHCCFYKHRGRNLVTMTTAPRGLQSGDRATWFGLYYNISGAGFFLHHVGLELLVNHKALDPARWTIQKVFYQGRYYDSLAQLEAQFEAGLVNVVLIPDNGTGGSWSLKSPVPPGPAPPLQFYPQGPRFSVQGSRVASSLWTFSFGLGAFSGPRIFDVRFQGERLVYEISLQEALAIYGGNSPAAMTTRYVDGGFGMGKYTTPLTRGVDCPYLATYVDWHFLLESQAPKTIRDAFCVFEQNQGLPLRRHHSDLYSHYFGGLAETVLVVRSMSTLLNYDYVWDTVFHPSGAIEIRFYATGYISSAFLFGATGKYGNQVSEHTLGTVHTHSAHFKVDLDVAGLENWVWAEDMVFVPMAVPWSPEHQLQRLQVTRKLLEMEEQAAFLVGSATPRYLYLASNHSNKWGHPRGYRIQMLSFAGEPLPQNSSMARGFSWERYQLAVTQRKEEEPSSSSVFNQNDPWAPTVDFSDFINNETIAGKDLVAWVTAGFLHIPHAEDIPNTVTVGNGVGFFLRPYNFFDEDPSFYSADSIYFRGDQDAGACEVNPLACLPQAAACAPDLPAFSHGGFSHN
Procedure: as §1, §2

| SMILES | IC50 [1] [µM] | IC50 [2] [µM] | IC50 [3] [µM] | IC50 [4] [µM] |
| --- | --- | --- | --- | --- |
| NC/C(=C\F)COc1ccc(-c2ccccc2)cc1 [Compound 33, (E)-2-(([1,1′-biphenyl]-4-yloxy)methyl)-3-fluoroprop-2-en-1-amine hydrochloride] | > 10 | < 3 | < 3 | < 3 |
| CCOC(=O)Nc1ccc(OC/C(=C/F)CN)cc1 [Compound 13] | 3 to 10 | < 3 | < 3 | < 3 |
| CCNC(=O)N(C)c1ccc(NC/C(=C\F)CN)cc1 [Compound 67, (Z)-1-(4-((2-(aminomethyl)-3-fluoroalkyl)amino)phenyl)-3-ethyl-1-methylurea] | 3 to 10 | 3 to 10 | > 10 | < 3 |
| CCNC(=O)N(C)c1ccc(NC/C(=C/F)CN)cc1 [Compound 66, (E)-1-(4-((2-(aminomethyl)-3-fluoroalkyl)amino)phenyl)-3-ethyl-1-methylurea] | > 10 | > 10 | > 10 | < 3 |
| NC/C(=C\F)COc1ccc(-c2nnn[nH]2)cc1 [Compound 51, (E)-2-((4-(1H-tetrazol-5-yl)phenoxy)methyl)-3-fluoroprop-2-en-1-amine hydrochloride] | 3 to 10 | > 10 | > 10 | < 3 |
| NC/C(=C\F)COc1ccc(-c2cnc[nH]2)cc1 [Compound 40, (E)-2-((4-(1H-imidazol-5-yl)phenoxy)methyl)-3-fluoroprop-2-en-1-amine] | < 3 | < 3 | 3 to 10 | < 3 |
| NC/C(=C\F)COc1ccc(-c2ncon2)cc1 [Compound 43, (E)-2-((4-(1,2,4-oxadiazol-3-yl)phenoxy)methyl)-3-fluoroprop-2-en-1-amine hydrochloride] | < 3 | < 3 | 3 to 10 | < 3 |
| Cn1cnc(-c2ccc(OC/C(=C/F)CN)cc2)c1 [Compound 39, (E)-3-fluoro-2-((4-(1-methyl-1H-imidazol-4-yl)phenoxy)methyl)prop-2-en-1-amine] | < 3 | < 3 | > 10 | < 3 |
| NC/C(=C\F)COCc1ccccc1 [Compound 5, (E)-2-((benzyloxy)methyl)-3-fluoroprop-2-en-1-amine hydrochloride] | > 10 | < 3 | < 3 | < 3 |
| NC/C(=C/F)COc1ccc(-c2nccs2)cc1 [Compound 20, (Z)-3-Fluoro-2-((4-(Thiazol-2-Yl)Phenoxy)Methyl)Prop-2-En-1-Amine Hydrochloride] | < 3 | < 3 | < 3 | < 3 |
| NC/C(=C/F)COc1ccc(-c2ccccc2)cc1 [Compound 34, (Z)-2-(([1,1′-biphenyl]-4-yloxy)methyl)-3-fluoroprop-2-en-1-amine hydrochloride] | < 3 | < 3 | < 3 | < 3 |

Continued, values first:

| IC50 [1] [µM] | IC50 [2] [µM] | IC50 [3] [µM] | IC50 [4] [µM] | SMILES |
| --- | --- | --- | --- | --- |
| < 3 | < 3 | < 3 | < 3 | NC/C(=C/F)COc1ccc(-c2ncccn2)cc1 [Compound 38, (Z)-3-fluoro-2-((4-(pyrimidin-2-yl)phenoxy)methyl)prop-2-en-1-amine hydrochloride] |
| < 3 | > 10 | > 10 | < 3 | NC/C(=C/F)COc1ccc(-c2nnn[nH]2)cc1 [Compound 52, (Z)-2-((4-(1H-tetrazol-5-yl)phenoxy)methyl)-3-fluoroprop-2-en-1-amine hydrochloride] |
| < 3 | < 3 | < 3 | < 3 | NC/C(=C\F)COc1ccc(-c2ccn[nH]2)cc1 [Compound 42, (E)-2-((4-(1H-pyrazol-5-yl)phenoxy)methyl)-3-fluoroprop-2-en-1-amine hydrochloride] |
| < 3 | < 3 | < 3 | < 3 | NC/C(=C/F)Cn1ncc(-c2ccc(O)cc2)n1 [Compound 58, (Z)-4-(2-(2-(aminomethyl)-3-fluoroalkyl)-2H-1,2,3-triazol-4-yl)phenol hydrochloride] |
| < 3 | < 3 | 3 to 10 | < 3 | NC/C(=C\F)COc1ccc(-c2nccs2)cc1 [Compound 19, (E)-3-fluoro-2-((4-(thiazol-2-yl)phenoxy)methyl)prop-2-en-1-amine hydrochloride] |
| < 3 | < 3 | 3 to 10 | < 3 | Cn1ccc(-c2ccc(OC/C(=C/F)CN)cc2)n1 [Compound 50, (E)-3-fluoro-2-((4-(1-methyl-1H-pyrazol-3-yl)phenoxy)methyl)prop-2-en-1-amine hydrochloride] |
